Experimental data: publication PMC11073699, “Odorant receptors for floral- and plant-derived volatiles in the yellow fever mosquito, Aedes aegypti (Diptera: Culicidae)” (PLOS ONE, 2024)
Where “and” joins values, the source holds several entries; their conditions need not be identical. Equal entries are not always repeated.

Assays:
Type in all cases: cell-based
AaegOR13 = biological target: T1, AaegOR13 (Aedes aegypti, UniProt Q16Z13); assay: Two-electrode voltage clamp of Xenopus laevis oocytes expressing AaegOR13/Orco (blends, unitary compounds, concentration-response); conditions: for Raw data (Responses in nA), unitary compounds of Indoles 1, Alcohols 1, Alcohols 3: individual oocytes 1-7
T1 sequence (Q16Z13 1-389): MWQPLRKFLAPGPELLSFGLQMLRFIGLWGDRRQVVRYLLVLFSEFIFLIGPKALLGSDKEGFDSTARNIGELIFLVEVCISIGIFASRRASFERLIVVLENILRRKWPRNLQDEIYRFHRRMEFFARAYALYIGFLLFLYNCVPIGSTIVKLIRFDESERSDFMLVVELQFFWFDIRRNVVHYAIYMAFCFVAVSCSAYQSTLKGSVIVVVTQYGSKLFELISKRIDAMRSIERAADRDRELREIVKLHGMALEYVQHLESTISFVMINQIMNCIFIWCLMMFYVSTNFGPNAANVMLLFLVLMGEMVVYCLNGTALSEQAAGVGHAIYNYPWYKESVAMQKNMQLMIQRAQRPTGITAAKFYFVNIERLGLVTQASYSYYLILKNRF
T1 sequence (Q178U6 1-478 partner): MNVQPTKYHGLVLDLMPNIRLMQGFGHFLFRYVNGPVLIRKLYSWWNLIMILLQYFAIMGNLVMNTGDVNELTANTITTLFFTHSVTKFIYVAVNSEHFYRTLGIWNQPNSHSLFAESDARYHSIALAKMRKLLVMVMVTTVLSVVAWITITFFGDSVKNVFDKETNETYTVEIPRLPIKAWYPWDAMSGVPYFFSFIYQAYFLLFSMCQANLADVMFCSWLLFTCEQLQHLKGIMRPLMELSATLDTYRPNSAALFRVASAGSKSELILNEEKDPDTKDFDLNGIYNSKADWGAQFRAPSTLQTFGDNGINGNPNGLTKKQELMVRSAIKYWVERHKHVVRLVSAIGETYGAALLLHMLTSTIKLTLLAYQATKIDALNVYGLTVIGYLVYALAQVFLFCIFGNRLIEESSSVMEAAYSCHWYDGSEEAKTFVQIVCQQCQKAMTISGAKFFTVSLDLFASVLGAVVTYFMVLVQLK
Outline: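 Xenopus oocytes injected with cRNA for AaegOR plus Orco, kept 48–72 hrs at 18°C, clamped at -80 mV by TEVC. Odorant blends or single compounds (10% DMSO dilutions) perfused 10–15 s; concentration-response from 10^-3M to 10^-9M, ≥7 responding oocytes, ≥2 biological replicates.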

AaegOR55 = biological target: T2, AaegOR55 (Aedes aegypti, UniProt Q16T12); assay: Two-electrode voltage clamp of Xenopus laevis oocytes expressing AaegOR55/Orco (blends, unitary compounds, concentration-response); conditions: for Raw Data (Responses in nA), Indoles 1 unitary compounds / Raw Data (Responses in nA), concentration-response: AaegOR55; for Raw Data (Responses in nA), Indoles 1 unitary compounds: compounds of blend Indoles 1, individual oocytes (Oocyte 1-7); for Raw Data (Responses in nA), concentration-response: individual oocytes (Oocyte 1-9)
T2 sequence (Q16T12 10-392): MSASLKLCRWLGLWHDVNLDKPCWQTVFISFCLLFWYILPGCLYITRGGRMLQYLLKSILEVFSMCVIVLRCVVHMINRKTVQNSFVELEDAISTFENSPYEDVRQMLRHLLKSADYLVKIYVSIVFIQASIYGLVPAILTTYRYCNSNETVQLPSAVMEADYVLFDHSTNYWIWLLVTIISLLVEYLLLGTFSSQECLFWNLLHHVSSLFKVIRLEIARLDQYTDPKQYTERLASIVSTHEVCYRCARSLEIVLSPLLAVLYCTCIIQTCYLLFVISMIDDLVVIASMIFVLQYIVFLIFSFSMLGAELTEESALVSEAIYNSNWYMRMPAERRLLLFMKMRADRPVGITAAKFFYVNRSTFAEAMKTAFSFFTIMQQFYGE
T2 sequence (Q178U6 1-478 partner): T1 sequence (Q178U6 1-478 partner)
From the text: (§1) The coding regions of ten AaegOR genes of interest (S3 File) and AaegOrco were synthesized by Twist Bioscience (San Francisco, CA, USA) and cloned into the pENTR plasmid. The Gateway LR directional cloning system (Invitrogen Corp., Carlsbad, CA, USA) was utilized to subclone AaegOR coding regions into the pSP64t-RFA oocyte expression plasmid. Plasmids were purified using the GeneJet Plasmid Miniprep Kit (ThermoFisher Scientific, Waltham, MA, USA). Purified plasmids were sequenced in both directions to confirm coding regions.
(§2) Chemical compounds (S6 File) used in the deorphanization of AaegORs were purchased from Acros Organics (Morris, NJ, USA), Alfa Aesar (Ward Hill, MA, USA), and ThermoFisher Scientific (Waltham, MA, USA) at the highest purity available. Compounds were stored as 1M stocks in 100% DMSO. Serial dilutions of each compound were prepared in 10% DMSO and blended by chemical class.
(§3) pSP64t-RFA: AaegOR clones were linearized using Xbal, and cRNAs were synthesized using the mMESSAGE mMACHINE ® SP6 kit (Life Technologies, Carlsbad, CA, USA). Xenopus laevis stage V-VII oocytes purchased from Xenopus1 (Dexter, MI, USA) were stored at 18°C in Incubation medium (ND96 96 with 5% dialyzed horse serum, 50μg/mL gentamycin, 100μg/mL streptomycin, 100μg/mL penicillin, and 550μg/mL sodium pyruvate). 30nL of cRNA was injected into multiple oocytes using a microinjection syringe pump (World Precision Instruments, Sarasota, FL, USA) maintained at 18°C for 48–72 hrs. Odorant blends were perfused across individual oocytes for 10–15 seconds, held at a resting membrane potential of -80 mV using an OC-725C oocyte clamp (Warner Instruments, LLC, Hamden, CT, USA). Induced currents were measured indirectly using the two-electrode voltage clamp technique (TEVC). Following each stimulus, currents were allowed to return to baseline before further stimulation. Data was captured using the Digidata 1550 B digitizer and PClamp10 software (Molecular Devices, San Jose, CA, USA). Concentration-response curves were generated by perfusing unitary odorants over oocytes at increasing concentrations from [10^-3M] to [10^-9M]. Data were analyzed using GraphPad Prism 8 (GraphPad Software Inc., La Jolla, CA, USA). At least two biological replicates were conducted at each concentration and for each compound. Data for at least seven oocytes responding to each compound was analyzed (S7 File).

AaegOR10 = biological target: T3, AaegOR10 (Aedes aegypti, UniProt Q177X3); assay: Two-electrode voltage clamp of Xenopus laevis oocytes expressing AaegOR10/Orco (blends, unitary compounds, concentration-response); conditions: for Raw response, unitary compounds of blend Indoles 1: unitary compounds of Indoles 1, individual oocytes 1-9 (replicates); for Raw Data, concentration-response: first series, oocytes 1-8
T3 sequence (Q177X3 1-375): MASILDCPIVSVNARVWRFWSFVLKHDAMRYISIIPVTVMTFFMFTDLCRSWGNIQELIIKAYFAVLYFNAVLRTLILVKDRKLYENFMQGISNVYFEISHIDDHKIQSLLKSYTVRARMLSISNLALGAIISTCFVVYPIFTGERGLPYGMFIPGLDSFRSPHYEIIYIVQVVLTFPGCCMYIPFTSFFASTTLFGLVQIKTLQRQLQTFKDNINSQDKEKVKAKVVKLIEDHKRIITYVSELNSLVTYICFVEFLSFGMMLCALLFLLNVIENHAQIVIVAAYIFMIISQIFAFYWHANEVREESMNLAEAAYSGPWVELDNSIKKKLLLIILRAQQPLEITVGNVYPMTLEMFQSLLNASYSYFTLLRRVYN
T3 sequence (Q178U6 1-478 partner): T1 sequence (Q178U6 1-478 partner)
From the text: as §1, §2, §3

Compound | Raw data (Responses in nA), unitary compounds of Indoles 1, Alcohols 1, Alcohols 3 (AaegOR13) | EC50 (AaegOR55; AaegOR55/Orco expressing oocytes, TEVC, concentration-response of normalized current) [nM] | Raw Data (Responses in nA), Indoles 1 unitary compounds (AaegOR55) | Raw Data (Responses in nA), concentration-response (AaegOR55; concentration 1e-7 M) | Raw Data (Responses in nA), concentration-response (AaegOR55; concentration 5e-7 M) | Raw Data (Responses in nA), concentration-response (AaegOR55; concentration 1e-6 M) | Raw Data (Responses in nA), concentration-response (AaegOR55; concentration 5e-6 M) | Raw Data (Responses in nA), concentration-response (AaegOR55; concentration 1e-5 M) | Raw Data (Responses in nA), concentration-response (AaegOR55; concentration 5e-5 M) | Raw Data (Responses in nA), concentration-response (AaegOR55; concentration 0.0001 M) | Raw response, unitary compounds of blend Indoles 1 (AaegOR10) | response of AaegOR55 to unitary compounds (AaegOR55; AaegOR55/Orco expressing oocytes, TEVC, individual compounds) | Raw Data, concentration-response (AaegOR10; 5e-7 M) [nA] | Raw Data, concentration-response (AaegOR10; 1e-5 M) [nA] | EC50 (AaegOR10; AaegOR10/Orco expressing oocytes, TEVC, concentration-response of normalized current) [nM] | EC50 (AaegOR13; AaegOR13/Orco expressing oocytes, TEVC, concentration-response of normalized current)
Cc1[nH]c2ccccc2c1C [2,3-dimethylindole] | 0.0 nA (6×) and 5.0 nA | 8650 | 235.0 nA and 140.0 nA and 250.0 nA and 300.0 nA and 185.0 nA and 305.0 nA and 295.0 nA | 10.0 nA (6×) and 15.0 nA (2×) and 5.0 nA | 30.0 nA (4×) and 20.0 nA (2×) and 15.0 nA and 40.0 nA and 45.0 nA | 20.0 nA (2×) and 10.0 nA and 30.0 nA (2×) and 15.0 nA and 35.0 nA and 40.0 nA and 55.0 nA | 70.0 nA and 25.0 nA and 80.0 nA and 60.0 nA (2×) and 110.0 nA and 120.0 nA and 190.0 nA (2×) | 90.0 nA (2×) and 25.0 nA and 120.0 nA and 80.0 nA and 140.0 nA and 170.0 nA and 260.0 nA (2×) | 165.0 nA and 40.0 nA and 210.0 nA and 140.0 nA and 170.0 nA and 220.0 nA and 240.0 nA and 430.0 nA and 380.0 nA | 160.0 nA and 55.0 nA and 210.0 nA (3×) and 140.0 nA and 180.0 nA and 440.0 nA and 380.0 nA | 70.0 nA and 20.0 nA and 0.0 nA (4×) and 10.0 nA (2×) and 30.0 nA | – | – | – | – | –
Cc1cc2ccccc2[nH]1 [2-Methylindole] | 0.0 nA (6×) and 5.0 nA | – | 0.0 nA | – | – | – | – | – | – | – | 0.0 nA | – | – | – | – | –
Cc1c[nH]c2ccccc12 [3-methylindole] | 0.0 nA and 5.0 nA (5×) and 10.0 nA | – | 160.0 nA and 85.0 nA and 170.0 nA and 235.0 nA and 120.0 nA and 225.0 nA and 245.0 nA | – | – | – | – | – | – | – | 270.0 nA and 500.0 nA and 120.0 nA and 40.0 nA and 80.0 nA and 320.0 nA and 70.0 nA and 180.0 nA and 30.0 nA | responded | 90.0 | 100.0 | 160 | –
CCc1ccc(O)cc1 [4-ethylphenol, 4-Ethylphenol] | 70.0 nA and 740.0 nA and 340.0 nA and 310.0 nA and 300.0 nA and 275.0 nA and 250.0 nA | – | 5.0 nA (5×) and 0.0 nA (2×) | – | – | – | – | – | – | – | 0.0 nA | – | – | – | – | ~170 nM and 170 nM
c1ccc2[nH]ccc2c1 [indole] | 0.0 nA (3×) and 5.0 nA (4×) | – | 40.0 nA (2×) and 15.0 nA and 30.0 nA (2×) and 25.0 nA (2×) | – | – | – | – | – | – | – | 0.0 nA (6×) and 80.0 nA and 10.0 nA (2×) | – | – | – | – | –
